“Also recorded” adds a separate entry of the source. Strand notation (5' to 3'): a small letter for the sugar, then the base; units joined by * are phosphorothioate-linked, units joined directly phosphodiester-linked; [ ] holds rarer units or linkages, { } end groups; capitals alone tell only the bases. [5IU] = 5-iodo-2'-deoxyuridine; [HEG] = Spacer 18, hexaethylene glycol phosphate; [TEG] = Spacer 9, triethylene glycol phosphate; [2doub] = Doubler2 branching unit (Chemgenes); [6NB] = 6-nitro-benzimidazol nucleoside; [5BrU] = 5-bromo-2'-deoxyuridine (BU); [5mC] = 5-methylcytosine; d = 2'-deoxy (DNA); m = 2'-O-methyl
Biological target: T1, human TLR9 (Homo sapiens, UniProt Q9NR96)
T1 construct: expressed in transfected cells
T1 sequence (Q9NR96 26-1032): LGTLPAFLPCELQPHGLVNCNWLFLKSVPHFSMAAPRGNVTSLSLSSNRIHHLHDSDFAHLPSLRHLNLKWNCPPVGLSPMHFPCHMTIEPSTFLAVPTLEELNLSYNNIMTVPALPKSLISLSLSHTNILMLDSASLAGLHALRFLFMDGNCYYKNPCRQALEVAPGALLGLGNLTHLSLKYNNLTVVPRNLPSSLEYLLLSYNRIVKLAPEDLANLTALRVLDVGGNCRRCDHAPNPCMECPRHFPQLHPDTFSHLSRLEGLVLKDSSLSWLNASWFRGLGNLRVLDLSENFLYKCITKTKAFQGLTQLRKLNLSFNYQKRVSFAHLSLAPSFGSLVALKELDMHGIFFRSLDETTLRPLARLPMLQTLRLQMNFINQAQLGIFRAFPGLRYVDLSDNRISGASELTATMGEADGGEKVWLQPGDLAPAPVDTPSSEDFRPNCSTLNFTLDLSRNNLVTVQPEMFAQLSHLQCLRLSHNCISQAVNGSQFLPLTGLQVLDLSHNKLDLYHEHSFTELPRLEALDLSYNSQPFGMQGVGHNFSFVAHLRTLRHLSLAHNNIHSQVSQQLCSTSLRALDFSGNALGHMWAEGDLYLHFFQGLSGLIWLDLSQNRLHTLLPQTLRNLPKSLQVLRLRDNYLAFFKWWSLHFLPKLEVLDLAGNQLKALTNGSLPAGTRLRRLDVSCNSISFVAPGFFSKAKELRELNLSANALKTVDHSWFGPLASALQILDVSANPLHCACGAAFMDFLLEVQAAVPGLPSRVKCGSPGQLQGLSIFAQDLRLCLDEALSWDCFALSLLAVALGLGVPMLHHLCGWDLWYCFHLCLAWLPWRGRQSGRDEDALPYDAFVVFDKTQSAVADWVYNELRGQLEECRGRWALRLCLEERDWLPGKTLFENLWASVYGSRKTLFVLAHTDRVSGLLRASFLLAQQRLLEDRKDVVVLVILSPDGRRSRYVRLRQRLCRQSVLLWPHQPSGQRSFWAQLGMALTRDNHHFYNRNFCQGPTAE
Assay: TLR9 luciferase assay (NF-κB reporter) in hTLR9-LUC-293 cells
Assay type: cell-based
Details: 16 h, stated in words relative to the comparator ODN
Description: HEK293 cells were transfected by electroporation with vectors expressing the respective human TLR and a 6xNF-κB-luciferase reporter plasmid. Stable transfectants (3×10^4 cells/well) were incubated indicated amounts of ODN for 16 h at 37° C. in a humidified incubator. Each data point was done in triplicate. Cells were lysed and assayed for luciferase gene activity (using the BriteLite kit from Perkin-Elmer, Zaventem, Belgium). Stimulation indices were calculated in reference to reporter gene activity of medium without addition of ODN.

Substance: T*G*JU*C-mG*T*T*T*T*T*T*T*T*T*T*T*T*T*T*T (DNA dT*dG*d[5IU]*dCmG*dT*dT*dT*dT*dT*dT*dT*dT*dT*dT*dT*dT*dT*dT*dT) [SEQ ID NO:112, 2′-O-methyl-modified B-class]
- TLR9 stimulation (NF-κB luciferase activity, relative stimulation index): slightly more active

Substance: T*G*BVU*C-G*T*T*T*T*T*T*T*T*T*T*T*T*T*T*T (DNA TGNCGTTTTTTTTTTTTTTT; listed as DNA, chemistry not fully specified) [SEQ ID NO:153, B-class with 5-(2-bromo-vinyl)-uridine (BVU)]
- TLR9 stimulation (NF-κB luciferase activity, relative stimulation index): more active in the assay than the parent sequence

Substance: T*G*JU*C-E*T*T*T*T*T*T*T*T*T*T*T*T*T*T*T (DNA TGNCNTTTTTTTTTTTTTTT; JU, 7-deaza-dG, chemistry not fully specified) [SEQ ID NO:138, B-class with 7-deaza-dG (E)]
- TLR9 stimulation (NF-κB luciferase activity, relative stimulation index): more active in the assay than the parent ODN

Substance: T*G*BU*C-G*T*T*T*T*T*T*T*T*T*T*T*T*T*T*T (DNA dT*dG*d[5BrU]*dCdG*dT*dT*dT*dT*dT*dT*dT*dT*dT*dT*dT*dT*dT*dT*dT) [SEQ ID NO:10]
- TLR9 stimulation (NF-κB luciferase activity, relative stimulation index): greater stimulation of TLR9 activity over control

Substance: T*C*T*T*T*T*T*T*G*U*C-G*T*T*T*T*T*T*T*T*T*T (DNA dT*dC*dT*dT*dT*dT*dT*dT*dG*dU*dCdG*dT*dT*dT*dT*dT*dT*dT*dT*dT*dT) [SEQ ID NO:51, U-modified T class]
- TLR9 stimulation (NF-κB luciferase activity, relative stimulation index): reduced stimulation of TLR9

Substance: T*G*EU*C-G*T*T*T*T*T*T*T*T*T*T*T*T*T*T*T (DNA TGNCGTTTTTTTTTTTTTTT; EU modification, chemistry not fully specified) [SEQ ID NO:42]
- TLR9 stimulation (NF-κB luciferase activity, relative stimulation index): greater stimulation of TLR9 activity over control; also recorded: significant increase in TLR9 activation

Substance: T*G*U*C-G*T*T*T*T*T*T*T*T*T*T*T*T*T*T*T (DNA dT*dG*dU*dCdG*dT*dT*dT*dT*dT*dT*dT*dT*dT*dT*dT*dT*dT*dT*dT) [SEQ ID NO:16]
- TLR9 stimulation (NF-κB luciferase activity, relative stimulation index): dramatically decreased activity

Substance: T*G*PU*C-G*T*T*T*T*T*T*T*T*T*T*T*T*T*T*T (DNA TGNCGTTTTTTTTTTTTTTT; 5-propynyl-dU, chemistry not fully specified) [SEQ ID NO:116, B-class with 5-proynyl-dU (PU)]
- TLR9 stimulation (NF-κB luciferase activity, relative stimulation index): activity comparable to that of the parent sequence; also recorded: slightly improved over the parent sequence

Substance: T*C-G-A-C-G-JU-C-G-T-G-G*G*G*G (DNA dT*dCdGdAdCdGd[5IU]dCdGdTdGdG*dG*dG*dG) [SEQ ID NO:35, JU-modified A class]
- TLR9 stimulation (NF-κB luciferase activity, relative stimulation index): increased stimulation of TLR9 above unmodified A and C class

Substance: T*mG*JU*C-mG*T*T*T*T*T*T*T*T*T*T*T*T*T*T*T (DNA dT*mG*d[5IU]*dCmG*dT*dT*dT*dT*dT*dT*dT*dT*dT*dT*dT*dT*dT*dT*dT) [SEQ ID NO:113, 2′-O-methyl-modified B-class]
- TLR9 stimulation (NF-κB luciferase activity, relative stimulation index): slightly more active

Substance: T*C-G-A-C-G-JU-C-G-JU-G-G*G*G*G (DNA dT*dCdGdAdCdGd[5IU]dCdGd[5IU]dGdG*dG*dG*dG) [SEQ ID NO:36, JU-modified A class]
- TLR9 stimulation (NF-κB luciferase activity, relative stimulation index): increased stimulation of TLR9 above unmodified A and C class

Substance: T*G*6NB*C-G*T*T*T*T*T*T*T*T*T*T*T*T*T*T*T (DNA TGNCGTTTTTTTTTTTTTTT; DNA at 1, 2, 4, 5, 6, 7, 8, 9, 10, 11, 12, 13, 14, 15, 16, 17, 18, 19, 20, [6NB] at 3, linkages s3 o1 s15 (s phosphorothioate, o phosphodiester), other sugars not given here; further chemistry not fully specified) [SEQ ID NO:178, B-class with 6-nitro-benzimidazol (6NB)]
- TLR9 stimulation (NF-κB luciferase activity, relative stimulation index): comparable with the unmodified parent sequence

Substance: (JU*C*G*T*T*C*G*L*)2doub-teg (DNA d[5IU]*dC*dG*dT*dT*dC*dG*[HEG]*[2doub][TEG]; some compounds branched: two arms joined via doubler and TEG) [SEQ ID NO:102, 3′3′-branched]
- TLR9 stimulation (NF-κB luciferase activity, relative stimulation index): as active or more active than the unmodified SEQ ID NO:1; also recorded: more active than SEQ ID NO:96 AND 97

Substance: T*G*JU*Z-G*T*T*T*T*T*T*T*T*T*T*T*T*T*T*T (DNA dT*dG*d[5IU]*d[5mC]dG*dT*dT*dT*dT*dT*dT*dT*dT*dT*dT*dT*dT*dT*dT*dT) [SEQ ID NO:140, B-class with 5-methyl-dC (Z)]
- TLR9 stimulation (NF-κB luciferase activity, relative stimulation index): more active in the assay than the parent ODN

Substance: (T*G*JU*C-G*T*T*L*)2doub-teg (DNA TGNCGTTNNN; JU modification, 3'3'-branched doubler with TEG, chemistry not fully specified) [SEQ ID NO:101]
- TLR9 stimulation (NF-κB luciferase activity, relative stimulation index): as active or more active than the unmodified SEQ ID NO:1; also recorded: more active than SEQ ID NO:96 AND 97

Substance: JU*C-G*JU*C*G*T*T*T*T*A*C*G*G*C*G*C*C*G*T*G*C*C*G (DNA d[5IU]*dCdG*d[5IU]*dC*dG*dT*dT*dT*dT*dA*dC*dG*dG*dC*dG*dC*dC*dG*dT*dG*dC*dC*dG) [SEQ ID NO:44]
- TLR9 stimulation (NF-κB luciferase activity, relative stimulation index): increased stimulation of TLR9 above unmodified A and C class

Substance: T*G*JU*C-I*T*T*T*T*T*T*T*T*T*T*T*T*T*T*T (DNA TGUCNTTTTTTTTTTTTTTT; DNA at 3, [5IU] at 3, linkages s3 o1 s15 (s phosphorothioate, o phosphodiester), other sugars and the base at N not given here; position 5 is inosine) [SEQ ID NO:139, B-class with inosine (I)]
- TLR9 stimulation (NF-κB luciferase activity, relative stimulation index): more active in the assay than the parent ODN

Substance: (JU*C*G*T*T*C*G*L*)2doub-3mG (DNA NCGTTCGNNN; JU, 3'3'-branched doubler, chemistry not fully specified) [SEQ ID NO:97]
- TLR9 stimulation (NF-κB luciferase activity, relative stimulation index): as active or more active than the unmodified SEQ ID NO:1

Substance: T*G*T*C-G*PU*T*T*T*T*T*T*T*T*T*T*T*T*T*T (DNA TGTCGNTTTTTTTTTTTTTT; 5-propynyl-dU, chemistry not fully specified) [SEQ ID NO:117, B-class with 5-proynyl-dU (PU)]
- TLR9 stimulation (NF-κB luciferase activity, relative stimulation index): activity comparable to that of the parent sequence

Substance: T*C*G*JU*C-G*JU*T*T*T*A*C*G*G*C*G*C*C*G*T*G*C*C*G (DNA dT*dC*dG*d[5IU]*dCdG*d[5IU]*dT*dT*dT*dA*dC*dG*dG*dC*dG*dC*dC*dG*dT*dG*dC*dC*dG) [SEQ ID NO:45]
- TLR9 stimulation (NF-κB luciferase activity, relative stimulation index): increased stimulation of TLR9 above unmodified A and C class

Substance: (T*G*JU*C-G*T*T*L*)2doub-3mG (DNA TGNCGTTNNN; JU, 3'3'-branched doubler, chemistry not fully specified) [SEQ ID NO:96]
- TLR9 stimulation (NF-κB luciferase activity, relative stimulation index): as active or more active than the unmodified SEQ ID NO:1

Substance: T*G*T*C-G*BVU*T*T*T*T*T*T*T*T*T*T*T*T*T*T (DNA TGTCGNTTTTTTTTTTTTTT; listed as DNA, chemistry not fully specified) [SEQ ID NO:154, B-class with 5-(2-bromo-vinyl)-uridine (BVU)]
- TLR9 stimulation (NF-κB luciferase activity, relative stimulation index): more active in the assay than the parent sequence

Substance: T*G*CU*C-G*T*T*T*T*T*T*T*T*T*T*T*T*T*T*T (DNA TGNCGTTTTTTTTTTTTTTT; CU modification, chemistry not fully specified) [SEQ ID NO:41]
- TLR9 stimulation (NF-κB luciferase activity, relative stimulation index): greater stimulation of TLR9 activity over control

Substance: T*G*EU*C-G*EU*T*T*T*T*T*T*T*T*T*T*T*T*T*T (DNA TGNCGNTTTTTTTTTTTTTT; EU modifications, chemistry not fully specified) [SEQ ID NO:30]
- TLR9 stimulation (NF-κB luciferase activity, relative stimulation index): significant increase in TLR9 activation

Substance: G*JU*C-G*JU*T-hex [SEQ ID NO:126]
- TLR9 stimulation (NF-κB luciferase activity, relative stimulation index): greatly enhanced the activity
